Literature values as cited in patent publication US7232435B2, “Delivery of a sympatholytic cardiovascular agent to the central nervous system to counter heart failure and pathologies associated with heart failure” (Medtronic, Inc., priority 2004, dated 2007).
Where a name gives a salt, the structure may show the parent alone.

How the values were obtained:
[1] = bolus intravenous injection
[2] = intrathecal delivery
[3] = oral or transdermal

Clc1cccc(Cl)c1N=C1NCCN1 [clonidine HCl]
autonomic effects (sympathetic outflow, vagal tone, baroreceptor reflex sensitivity) [1]: decreased sympathetic outflow, increased vagal tone and sensitivity of the baroreceptor reflex
hemodynamic effects (heart rate, preload, afterload, pulmonary artery and right atrial pressure) [1]: Reductions were observed in heart rate, left ventricular filling pressure (preload), mean systemic arterial pressure (afterload), mean pulmonary artery pressure and right atrial pressure
time of peak effects [1]: 5 to 20 min

Clc1cccc(Cl)c1N=C1NCCN1 [clonidine, 2-[(2,6-dichlorophenyl)amino]-2-imidazoline]
undesirable side effects [2]: Abnormally low blood pressure (hypotension) and bradycardia
major side effects [3]: sedation and dry mouth
